This assay has as its system T1, turtle liver aldolase (ALDOA/ALDOB, suggested heterotetramer).
T1 construct: native, purified from liver of normoxic adult females (DEAE+, two Cibacron Blue steps); ~37 kDa subunit
The assay is described as follows: coupled NADH assay (alpha-glycerophosphate dehydrogenase / triose phosphate isomerase), […] nm. The class given is biochemical, Trachemys scripta elegans. As to conditions: enzyme from normoxic liver; 100 mM KPi pH 7.2, 10 mM EDTA, 25 °C; A/B isoenzyme mixture or heterotetramer.

In article PMC3715522, “Characterization of Fructose-1,6-Bisphosphate Aldolase during Anoxia in the Tolerant Turtle, Trachemys scripta elegans: An Assessment of Enzyme Activity, Expression and Structure” (PLoS ONE, 2013) one finds Km data, which are given here for two compounds.

What is called Km is the substrate concentration at which the rate is half of its maximum. As to `O=P(O)(O)OCC1(O)O[C@H](CO)[C@@H](O)[C@@H]1O` (some centres unmarked) [F1P, fructose-1-phosphate], the Km was approximately 14 mM.
As for `O=P(O)(O)OC[C@H]1OC(O)(COP(=O)(O)O)[C@@H](O)[C@@H]1O` (some centres unmarked) [FBP, fructose-1,6-bisphosphate], the Km came out at 0.00024 ± 3e-05 mM.
